Where “and” joins values, the source holds several entries; their conditions need not be identical. Equal entries are not always repeated.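 96-well plates; 48 h exposure; 5 concentrations. Endpoints by linear interpolation between flanking doses. Not reached: highest tested concentration assigned. GI50 is the concentration that inhibits growth by half. The concentration for full growth arrest is given as TGI.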
Columns and labels:
Assay in all cases: DTP human tumour cell line panel, 48 h
ACHN renal = test system: ACHN renal
SK-MEL-2 melanoma = test system: SK-MEL-2 melanoma
SNB-19 CNS = test system: SNB-19 CNS
HL-60(TB) leukemia = test system: HL-60(TB) leukemia
786-0 renal = test system: 786-0 renal
LOX IMVI melanoma = test system: LOX IMVI melanoma
HCC-2998 colon = test system: HCC-2998 colon
SK-MEL-28 melanoma = test system: SK-MEL-28 melanoma
SF-539 CNS = test system: SF-539 CNS
MOLT-4 leukemia = test system: MOLT-4 leukemia

Molecule | TGI (ACHN renal) [µM] | TGI (SK-MEL-2 melanoma) | TGI (SNB-19 CNS) | TGI (HL-60(TB) leukemia) [µM] | TGI (786-0 renal) [µM] | TGI (LOX IMVI melanoma) | TGI (HCC-2998 colon) | TGI (SK-MEL-28 melanoma) | TGI (SF-539 CNS) | TGI (MOLT-4 leukemia) | GI50 (ACHN renal) [µM] | GI50 (SK-MEL-2 melanoma) [µM] | GI50 (SNB-19 CNS) [µM] | GI50 (HL-60(TB) leukemia) [µM] | GI50 (786-0 renal) [µM] | GI50 (LOX IMVI melanoma) [µM] | GI50 (HCC-2998 colon) [µM] | GI50 (SK-MEL-28 melanoma) [µM] | GI50 (SF-539 CNS) [µM] | GI50 (MOLT-4 leukemia)
N#CC(C(=O)CCCC(=O)Nc1ccc(Cl)cc1Cl)c1ccc(Cl)cc1 (centres undefined) | > 100 | > 100 µM | > 100 µM | > 100 | > 100 | > 100 µM | > 100 µM | > 100 µM | > 100 µM | > 100 µM | – | – | – | – | – | – | – | – | – | –
Nc1c(C(=O)Nc2cccc3ccccc23)sc2nc3c(cc12)C(=O)CCC3 | > 58.2 | 19.1 µM | > 81 µM | 0.804 | 35.8 | > 100 µM | – | 53.4 µM | 0.456 µM | > 100 µM | 0.341 | 0.0915 | 0.603 | 0.246 | 0.388 | 0.554 | 0.3 | 0.341 | 0.152 | 0.659 µM
Cc1c2ccncc2c(C)c2c1[nH]c1ccc(Cl)cc12 | 13.1 | 7.17 µM and 10.9 µM | 8.36 µM and 15.5 µM | – | 2.27 | 6 µM and 2.94 µM | 19.3 µM and 13.9 µM | 13.3 µM and 3.67 µM | 6.68 µM and 7.97 µM | 2.59 µM and 2.77 µM | – | – | 3 | 2.62 | – | – | 2.34 | 1.93 | 2.09 | 0.91 µM and 0.471 µM
CCCN1CCC=C(c2ccc(Nc3nc(Nc4ccccc4C(N)=O)c4cc[nH]c4n3)c(C)c2)C1 | > 25 | 15.4 µM | > 25 µM | 6.84 | > 25 | > 25 µM | > 25 µM | > 25 µM | > 25 µM | > 21 µM | 15.4 | 2.51 | > 25 | 0.387 | 17.3 | 1.77 | 5.7 | > 23.8 | 17.9 | 7.79 µM
S=c1c2ccccc2c(=S)n2n1CC=CC2 | > 100 | > 100 µM | > 100 µM | > 100 | > 100 | > 100 µM | > 100 µM | > 100 µM | > 100 µM | > 100 µM | – | – | – | – | – | – | – | – | – | –
c1ccc(-c2ccnc3c2ccc2c(-c4ccccc4)ccnc23)cc1 | 9.45 | 11.4 µM | 13.9 µM | 3.69 | 10.4 | 14.8 µM | 14.3 µM | 19.9 µM | 5.62 µM | 2.93 µM | – | – | – | – | – | – | – | – | – | –
H-QIYKKYRTWYRKAWKVLGKV-NH2 | 25.5 | 49.8 µM | 68.6 µM | 8.76 | 16.8 | > 100 µM | 63.4 µM | 22.5 µM | 4.98 µM | 79.5 µM | 12 | 16.5 | 17.5 | 2.84 | 3.04 | 23.7 | 17.5 | 4.89 | 2.21 | 11.7 µM
CC(C)N1C(C)[C@@H](c2ccccc2)O[P@]1(=O)CC1=CCCCC1 (some centres undefined) | > 100 | > 100 µM | > 100 µM | 57.4 | > 100 | > 100 µM | > 100 µM | > 100 µM | > 100 µM | > 100 µM | – | – | – | – | – | – | – | – | – | –
Cc1ccc(S(=O)(=O)NC(CO)C(=O)O)cc1 (centres undefined) | > 100 | > 100 µM | > 100 µM | > 100 | > 100 | > 100 µM | > 100 µM | > 100 µM | > 100 µM | > 100 µM | – | – | – | – | – | – | – | – | – | –

From PubChem BioAssay (NCI)
